Key:
[1] = Cell cycle arrest in human THP1 cells assessed as accumulation at S phase at 30 uM after 24 hrs by flow cytometric method (reference value: 16 +/- 2%); assay type: functional, cell-based; conditions: THP-1
[2] = Cell cycle arrest in human AsPC1 cells assessed as accumulation at S phase at 75 uM after 24 hrs by flow cytometric method (reference value: 23 +/- 3%); assay type: functional, cell-based
[3] = Cell cycle arrest in human AsPC1 cells assessed as accumulation at G0/G1 phase at 10 uM after 24 hrs by flow cytometric method (reference value: 48 +/- 7%); assay type: functional, cell-based
[4] = Cell cycle arrest in human AsPC1 cells assessed as accumulation at G2/M phase at 100 uM after 24 hrs by flow cytometric method (reference value: 29 +/- 5%); assay type: functional, cell-based
[5] = Cell cycle arrest in human AsPC1 cells assessed as accumulation at G0/G1 phase at 100 uM after 24 hrs by flow cytometric method (reference value: 48 +/- 7%); assay type: functional, cell-based
[6] = Cell cycle arrest in human AsPC1 cells assessed as accumulation at G2/M phase at 75 uM after 24 hrs by flow cytometric method (reference value: 29 +/- 5%); assay type: functional, cell-based
[7] = test system: THP-1; test: Pro-apoptotic activity in human THP1 cells assessed as early apoptotic cells at 10 uM after 24 hrs by annexin V/propidium iodide staining-based flow cytometric method (reference value: 0.4 +/- 0.1%); assay type: functional
[8] = Cell cycle arrest in human THP1 cells assessed as accumulation at G0/G1 phase at 3 uM after 24 hrs by flow cytometric method (reference value: 51 +/- 6%); assay type: functional, cell-based; conditions: THP-1
[9] = Cell cycle arrest in human AsPC1 cells assessed as accumulation at S phase at 1 uM after 24 hrs by flow cytometric method (reference value: 23 +/- 3%); assay type: functional, cell-based
[10] = Cell cycle arrest in human AsPC1 cells assessed as accumulation at S phase at 50 uM after 24 hrs by flow cytometric method (reference value: 23 +/- 3%); assay type: functional, cell-based
[11] = Cell cycle arrest in human AsPC1 cells assessed as accumulation at G0/G1 phase at 75 uM after 24 hrs by flow cytometric method (reference value: 48 +/- 7%); assay type: functional, cell-based
[12] = test system: ASPC1; test: Pro-apoptotic activity in human AsPC1 cells assessed as necrotic cells at 50 uM after 24 hrs by annexin V/propidium iodide staining-based flow cytometric method (reference value: 2.1 +/- 0.4%); assay type: functional
[13] = test system: THP-1; test: Pro-apoptotic activity in human THP1 cells assessed as late apoptotic cells at 0.75 uM after 24 hrs by annexin V/propidium iodide staining-based flow cytometric method (reference value: 0.4 +/- 0.1%); assay type: functional
[14] = test system: THP-1; test: Pro-apoptotic activity in human THP1 cells assessed as late apoptotic cells at 3 uM after 24 hrs by annexin V/propidium iodide staining-based flow cytometric method (reference value: 0.4 +/- 0.1%); assay type: functional
[15] = test system: ASPC1; test: Pro-apoptotic activity in human AsPC1 cells after 24 hrs by annexin V/propidium iodide staining-based flow cytometric method; assay type: functional; conditions: ASPC1, 24 h, read-out: ED50 (the source's name)
[16] = test system: ASPC1; test: Pro-apoptotic activity in human AsPC1 cells assessed as late apoptotic cells at 75 uM after 24 hrs by annexin V/propidium iodide staining-based flow cytometric method (reference value: 0.8 +/- 0.1%); assay type: functional
[17] = Cell cycle arrest in human THP1 cells assessed as accumulation at S phase at 0.75 uM after 24 hrs by flow cytometric method (reference value: 16 +/- 2%); assay type: functional, cell-based; conditions: THP-1
[18] = test system: ASPC1; test: Pro-apoptotic activity in human AsPC1 cells assessed as late apoptotic cells at 10 uM after 24 hrs by annexin V/propidium iodide staining-based flow cytometric method (reference value: 0.8 +/- 0.1%); assay type: functional
[19] = Cell cycle arrest in human THP1 cells assessed as accumulation at G2/M phase at 3 uM after 24 hrs by flow cytometric method (reference value: 32 +/- 1%); assay type: functional, cell-based; conditions: THP-1
[20] = test system: ASPC1; test: Pro-apoptotic activity in human AsPC1 cells assessed as late apoptotic cells at 50 uM after 24 hrs by annexin V/propidium iodide staining-based flow cytometric method (reference value: 0.8 +/- 0.1%); assay type: functional
[21] = Cell cycle arrest in human THP1 cells assessed as decrease in cell levels at G2/M phase after 24 hrs by flow cytometric method; assay type: functional, cell-based; conditions: THP-1
[22] = Cell cycle arrest in human AsPC1 cells assessed as accumulation at G0/G1 phase at 30 uM after 24 hrs by flow cytometric method (reference value: 48 +/- 7%); assay type: functional, cell-based
[23] = test system: THP-1; test: Pro-apoptotic activity in human THP1 cells assessed as early apoptotic cells at 0.5 uM after 24 hrs by annexin V/propidium iodide staining-based flow cytometric method (reference value: 0.4 +/- 0.1%); assay type: functional
[24] = Cell cycle arrest in human THP1 cells assessed as accumulation at S phase at 1 uM after 24 hrs by flow cytometric method (reference value: 16 +/- 2%); assay type: functional, cell-based; conditions: THP-1
[25] = Cell cycle arrest in human THP1 cells assessed as accumulation at S phase at 10 uM after 24 hrs by flow cytometric method (reference value: 16 +/- 2%); assay type: functional, cell-based; conditions: THP-1
[26] = Cell cycle arrest in human AsPC1 cells assessed as accumulation at G2/M phase at 10 uM after 24 hrs by flow cytometric method (reference value: 29 +/- 5%); assay type: functional, cell-based
[27] = Cell cycle arrest in human THP1 cells assessed as accumulation at G2/M phase at 0.75 uM after 24 hrs by flow cytometric method (reference value: 32 +/- 1%); assay type: functional, cell-based; conditions: THP-1
[28] = test system: THP-1; test: Pro-apoptotic activity in human THP1 cells assessed as late apoptotic cells at 30 uM after 24 hrs by annexin V/propidium iodide staining-based flow cytometric method (reference value: 0.4 +/- 0.1%); assay type: functional
[29] = test system: THP-1; test: Pro-apoptotic activity in human THP1 cells assessed as necrotic cells at 10 uM after 24 hrs by annexin V/propidium iodide staining-based flow cytometric method relative to control; assay type: functional
[30] = Cell cycle arrest in human THP1 cells assessed as accumulation at G2/M phase at 1 uM after 24 hrs by flow cytometric method (reference value: 32 +/- 1%); assay type: functional, cell-based; conditions: THP-1
[31] = Cell cycle arrest in human THP1 cells assessed as accumulation at G0/G1 phase at 30 uM after 24 hrs by flow cytometric method (reference value: 51 +/- 6%); assay type: functional, cell-based; conditions: THP-1
[32] = Cell cycle arrest in human AsPC1 cells assessed as accumulation at S phase at 10 uM after 24 hrs by flow cytometric method (reference value: 23 +/- 3%); assay type: functional, cell-based
[33] = Cell cycle arrest in human AsPC1 cells assessed as accumulation at G0/G1 phase at 1 uM after 24 hrs by flow cytometric method (reference value: 48 +/- 7%); assay type: functional, cell-based
[34] = test system: ASPC1; test: Pro-apoptotic activity in human AsPC1 cells assessed as necrotic cells at 100 uM after 24 hrs by annexin V/propidium iodide staining-based flow cytometric method (reference value: 2.1 +/- 0.4%); assay type: functional
[35] = Cell cycle arrest in human THP1 cells assessed as accumulation at S phase after 24 hrs by flow cytometric method; assay type: functional, cell-based; conditions: THP-1
[36] = test system: THP-1; test: Pro-apoptotic activity in human THP1 cells assessed as necrotic cells at 3 uM after 24 hrs by annexin V/propidium iodide staining-based flow cytometric method relative to control; assay type: functional

NC(=[Se])N/N=C/c1cccc2cccnc12
Activity [1]: 32%
Activity [2]: 22.3%
Activity [3]: 62%
Activity [4]: 17%
Activity [5]: 64.1%
Activity [6]: 14.4%
Activity [7]: 6%
Activity [8]: 43%
Activity [9]: 35.5%
Activity [10]: 26%
Activity [11]: 63.3%
Activity [12]: 1.7%
Activity [13]: 2.4%
Activity [14]: 3%
EC50 [15]: > 100 µM
Activity [16]: 4.1%
Activity [17]: 21%
Activity [18]: 0.8%
Activity [19]: 30%
Activity [20]: 0.3%
Activity [21]: Dose-dependent effect
Activity [22]: 69.2%
Activity [23]: 1.7%
Activity [24]: 26%
Activity [25]: 27%
Activity [26]: 16.7%
Activity [27]: 34%
Activity [28]: 46%
Activity [29]: 4%
Activity [30]: 31%
Activity [31]: 43%
Activity [32]: 21.3%
Activity [33]: 53.8%
Activity [34]: 5.5%
Activity [35]: Dose-dependent effect
Activity [36]: 0.4%

Source: ChEMBL document CHEMBL3861944 (Medchemcomm, 2016)
